In patent US10259810B2, “N-sulfonylated pyrazolo[3,4-b]pyridin-6-carboxamides and method of use” (AbbVie S.à.r.l., priority 2015, dated 2019):

Legend:
ΔF508-CFTR [1] = target: T1, ΔF508-CFTR (Homo sapiens, UniProt P13569, DEL508-508); test: CFTR cell surface levels using HRP-tagged ΔF508-CFTR expressing CFBE cells, in the presence of a co-corrector; format: cell-based; settings: HRP-tagged ΔF508-CFTR CFBE cells, in the presence of 3 μM co-corrector; for EC50: read-out: EC50
T1 construct: host or cells: CFBE41o-, doxycycline-inducible
T1 sequence (P13569 with tags, fused parts or gaps DEL508-508): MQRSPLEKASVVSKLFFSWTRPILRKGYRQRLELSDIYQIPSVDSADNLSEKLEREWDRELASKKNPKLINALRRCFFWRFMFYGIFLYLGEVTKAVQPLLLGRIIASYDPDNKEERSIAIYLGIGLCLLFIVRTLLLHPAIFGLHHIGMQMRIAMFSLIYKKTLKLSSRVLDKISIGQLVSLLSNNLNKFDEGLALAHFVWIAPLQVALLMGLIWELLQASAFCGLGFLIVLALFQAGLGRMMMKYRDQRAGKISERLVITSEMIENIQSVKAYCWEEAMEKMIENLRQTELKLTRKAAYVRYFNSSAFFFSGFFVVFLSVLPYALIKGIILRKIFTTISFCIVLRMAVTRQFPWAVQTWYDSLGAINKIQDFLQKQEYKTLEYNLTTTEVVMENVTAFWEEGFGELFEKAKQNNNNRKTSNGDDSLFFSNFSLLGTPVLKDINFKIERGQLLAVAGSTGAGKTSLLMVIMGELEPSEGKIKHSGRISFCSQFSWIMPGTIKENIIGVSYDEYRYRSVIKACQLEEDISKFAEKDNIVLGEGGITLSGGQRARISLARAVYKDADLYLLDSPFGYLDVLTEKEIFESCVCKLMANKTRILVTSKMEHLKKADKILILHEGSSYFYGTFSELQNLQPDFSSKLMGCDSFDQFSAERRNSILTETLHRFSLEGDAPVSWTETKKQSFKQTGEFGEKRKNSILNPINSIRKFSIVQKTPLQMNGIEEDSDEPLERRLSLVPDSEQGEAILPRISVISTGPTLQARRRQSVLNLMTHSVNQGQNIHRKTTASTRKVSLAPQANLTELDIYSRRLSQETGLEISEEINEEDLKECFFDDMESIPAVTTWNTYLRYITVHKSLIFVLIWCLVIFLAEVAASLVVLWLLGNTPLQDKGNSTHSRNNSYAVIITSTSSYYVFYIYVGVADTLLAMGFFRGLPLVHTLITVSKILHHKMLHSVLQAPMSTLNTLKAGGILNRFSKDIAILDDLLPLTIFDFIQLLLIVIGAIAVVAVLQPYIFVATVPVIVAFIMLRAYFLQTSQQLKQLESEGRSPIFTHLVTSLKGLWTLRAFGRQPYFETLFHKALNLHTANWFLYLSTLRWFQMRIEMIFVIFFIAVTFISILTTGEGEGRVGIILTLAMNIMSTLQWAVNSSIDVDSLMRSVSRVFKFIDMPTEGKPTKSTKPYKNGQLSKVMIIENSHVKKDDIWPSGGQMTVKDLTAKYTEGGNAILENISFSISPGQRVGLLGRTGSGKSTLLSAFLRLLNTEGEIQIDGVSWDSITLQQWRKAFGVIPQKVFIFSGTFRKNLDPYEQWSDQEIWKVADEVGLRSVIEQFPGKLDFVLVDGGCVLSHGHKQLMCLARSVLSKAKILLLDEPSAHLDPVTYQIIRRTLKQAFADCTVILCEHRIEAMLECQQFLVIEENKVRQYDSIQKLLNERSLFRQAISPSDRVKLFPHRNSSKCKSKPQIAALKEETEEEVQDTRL
Outline: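 Chemiluminescent read-out of surface HRP (15 min, dark) after PBS washes. Activity is normalized as 100×(sample−DMSO)/(3 μM co-corrector alone−DMSO).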

ΔF508-CFTR [2] = target: T1, ΔF508-CFTR; test: CFTR cell surface levels using HRP-tagged ΔF508-CFTR expressing CFBE cells, intrinsic corrector capacity; format: cell-based; parameters: % Activation: concentration or dose not given beside the values; settings: HRP-tagged ΔF508-CFTR expressing CFBE41o- cells, compound alone (intrinsic corrector capacity), 20 hours at 33° C.; for EC50: read-out: EC50
Outline: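 Read-out: chemiluminescent HRP activity of ECL4-HRP-tagged ΔF508-CFTR at the cell surface, 15 min substrate in dark. Normalized as 100×(sample−DMSO)/(positive control−DMSO).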

Compound: CC(C)c1nn(C2CCCCC2)c2nc(C(=O)NS(C)(=O)=O)cc(-c3ccc(N4CCC(F)(F)C4)nc3)c12 [Compound 64, 1-cyclohexyl-4-[6-(3,3-difluoropyrrolidin-1-yl)pyridin-3-yl]-N-(methanesulfonyl)-3-(propan-2-yl)-1H-pyrazolo[3,4-b]pyridine-6-carboxamide]
- % Activation (ΔF508-CFTR [1]): 362.45%
- EC50 (ΔF508-CFTR [1]): 0.444 µM
- % Activation (ΔF508-CFTR [2]): 152.75%
- EC50 (ΔF508-CFTR [2]): 0.935 µM

Compound: Cc1nn(-c2cccc(Cl)c2)c2nc(C(=O)NS(C)(=O)=O)cc(-c3ccc(N4CCOCC4)cc3)c12 [Compound 65, 1-(3-chlorophenyl)-N-(methanesulfonyl)-3-methyl-4-[4-(morpholin-4-yl)phenyl]-1H-pyrazolo[3,4-b]pyridine-6-carboxamide]
- % Activation (ΔF508-CFTR [1]): 332.05%
- EC50 (ΔF508-CFTR [1]): 0.464 µM
- % Activation (ΔF508-CFTR [2]): 162.33%
- EC50 (ΔF508-CFTR [2]): 1.53 µM

Compound: CCS(=O)(=O)NC(=O)c1cc(-c2ccc(N3CCOCC3)cc2)c2c(C)nn(-c3cccc(Cl)c3)c2n1 [Compound 66, 1-(3-chlorophenyl)-N-(ethanesulfonyl)-3-methyl-4-[4-(morpholin-4-yl)phenyl]-1H-pyrazolo[3,4-b]pyridine-6-carboxamide]
- % Activation (ΔF508-CFTR [1]): 332.85%
- EC50 (ΔF508-CFTR [1]): 6.67 µM
- % Activation (ΔF508-CFTR [2]): 142.65%
- EC50 (ΔF508-CFTR [2]): 1.86 µM

Compound: Cc1nn(-c2cccc(F)c2)c2nc(C(=O)NS(C)(=O)=O)cc(-c3ccc(N4CCOCC4)cc3)c12 [Compound 67, 1-(3-fluorophenyl)-N-(methanesulfonyl)-3-methyl-4-[4-(morpholin-4-yl)phenyl]-1H-pyrazolo[3,4-b]pyridine-6-carboxamide]
- % Activation (ΔF508-CFTR [1]): 371.62%
- EC50 (ΔF508-CFTR [1]): 0.241 µM
- % Activation (ΔF508-CFTR [2]): 181.96%
- EC50 (ΔF508-CFTR [2]): 0.362 µM

Compound: CCS(=O)(=O)NC(=O)c1cc(-c2ccc(N3CCOCC3)cc2)c2c(C)nn(-c3cccc(F)c3)c2n1 [Compound 68, N-(ethanesulfonyl)-1-(3-fluorophenyl)-3-methyl-4-[4-(morpholin-4-yl)phenyl]-1H-pyrazolo[3,4-b]pyridine-6-carboxamide]
- % Activation (ΔF508-CFTR [1]): 456.6%
- EC50 (ΔF508-CFTR [1]): 0.847 µM
- % Activation (ΔF508-CFTR [2]): 253.3%
- EC50 (ΔF508-CFTR [2]): 1.08 µM

Compound: Cc1nn(-c2ccc(OC(F)(F)F)cc2)c2nc(C(=O)NS(C)(=O)=O)cc(-c3ccc(N4CCOCC4)cc3)c12 [Compound 69, N-(methanesulfonyl)-3-methyl-4-[4-(morpholin-4-yl)phenyl]-1-[4-(trifluoromethoxy)phenyl]-1H-pyrazolo[3,4-b]pyridine-6-carboxamide]
- % Activation (ΔF508-CFTR [1]): 362.03%
- EC50 (ΔF508-CFTR [1]): 0.404 µM
- % Activation (ΔF508-CFTR [2]): 182.08%
- EC50 (ΔF508-CFTR [2]): 0.632 µM

Compound: CCS(=O)(=O)NC(=O)c1cc(-c2ccc(N3CCOCC3)cc2)c2c(C)nn(-c3ccc(OC(F)(F)F)cc3)c2n1 [Compound 70, N-(ethanesulfonyl)-3-methyl-4-[4-(morpholin-4-yl)phenyl]-1-[4-(trifluoromethoxy)phenyl]-1H-pyrazolo[3,4-b]pyridine-6-carboxamide]
- % Activation (ΔF508-CFTR [1]): 342.85%
- EC50 (ΔF508-CFTR [1]): 0.41 µM
- % Activation (ΔF508-CFTR [2]): 167.8%
- EC50 (ΔF508-CFTR [2]): 0.621 µM

Compound: COc1cccc(-n2nc(C)c3c(-c4ccc(N5CCOCC5)cc4)cc(C(=O)NS(C)(=O)=O)nc32)c1 [Compound 72, N-(methanesulfonyl)-1-(3-methoxyphenyl)-3-methyl-4-[4-(morpholin-4-yl)phenyl]-1H-pyrazolo[3,4-b]pyridine-6-carboxamide]
- % Activation (ΔF508-CFTR [1]): 400.9%
- EC50 (ΔF508-CFTR [1]): 5.61 µM
- % Activation (ΔF508-CFTR [2]): 232.5%
- EC50 (ΔF508-CFTR [2]): 2.23 µM

Compound: CCS(=O)(=O)NC(=O)c1cc(-c2ccc(N3CCOCC3)cc2)c2c(C)nn(-c3cccc(OC)c3)c2n1 [Compound 73, N-(ethanesulfonyl)-1-(3-methoxyphenyl)-3-methyl-4-[4-(morpholin-4-yl)phenyl]-1H-pyrazolo[3,4-b]pyridine-6-carboxamide]
- % Activation (ΔF508-CFTR [1]): 423.35%
- EC50 (ΔF508-CFTR [1]): 0.49 µM
- % Activation (ΔF508-CFTR [2]): 254.1%
- EC50 (ΔF508-CFTR [2]): 0.657 µM

Compound: COCCN(C)c1cccc(-n2nc(C(C)C)c3c(-c4ccc(N5CCOCC5)cc4)cc(C(=O)NS(C)(=O)=O)nc32)c1 [Compound 76, N-(methanesulfonyl)-1-{3-[(2-methoxyethyl)(methyl)amino]phenyl}-4-[4-(morpholin-4-yl)phenyl]-3-(propan-2-yl)-1H-pyrazolo[3,4-b]pyridine-6-carboxamide]
- % Activation (ΔF508-CFTR [1]): 581.37%
- EC50 (ΔF508-CFTR [1]): 0.633 µM
- % Activation (ΔF508-CFTR [2]): 430.87%
- EC50 (ΔF508-CFTR [2]): 0.528 µM

Compound: CC(C)c1nn(-c2cccc(N(C)C)c2)c2nc(C(=O)NS(C)(=O)=O)cc(-c3cnc(N(C)C)nc3)c12 [Compound 77, 1-[3-(dimethylamino)phenyl]-4-[2-(dimethylamino)pyrimidin-5-yl]-N-(methanesulfonyl)-3-(propan-2-yl)-1H-pyrazolo[3,4-b]pyridine-6-carboxamide]
- % Activation (ΔF508-CFTR [1]): 449.85%
- EC50 (ΔF508-CFTR [1]): 0.831 µM
- % Activation (ΔF508-CFTR [2]): 296.45%
- EC50 (ΔF508-CFTR [2]): 0.639 µM

Compound: CCS(=O)(=O)NC(=O)c1cc(-c2cnc(N(C)C)nc2)c2c(C(C)C)nn(-c3cccc(N(C)C)c3)c2n1 [Compound 78, 1-[3-(dimethylamino)phenyl]-4-[2-(dimethylamino)pyrimidin-5-yl]-N-(ethanesulfonyl)-3-(propan-2-yl)-1H-pyrazolo[3,4-b]pyridine-6-carboxamide]
- % Activation (ΔF508-CFTR [1]): 520.7%
- EC50 (ΔF508-CFTR [1]): 0.66 µM
- % Activation (ΔF508-CFTR [2]): 333.2%
- EC50 (ΔF508-CFTR [2]): 1.88 µM

Compound: CC(=O)Nc1ccc(-c2cc(C(=O)NS(C)(=O)=O)nc3c2c(C(C)C)nn3C2CCCCC2)cc1 [Compound 79, 4-(4-acetamidophenyl)-1-cyclohexyl-N-(methanesulfonyl)-3-(propan-2-yl)-1H-pyrazolo[3,4-b]pyridine-6-carboxamide]
- % Activation (ΔF508-CFTR [1]): 501.6%
- EC50 (ΔF508-CFTR [1]): 0.555 µM
- % Activation (ΔF508-CFTR [2]): 280.9%
- EC50 (ΔF508-CFTR [2]): 1.23 µM

Compound: CC(C)c1nn(-c2cccc(N(C)C)c2)c2nc(C(=O)NS(C)(=O)=O)cc(-c3ccc(N4CCC(C#N)CC4)cc3)c12 [Compound 81, 4-[4-(4-cyanopiperidin-1-yl)phenyl]-1-[3-(dimethylamino)phenyl]-N-(methanesulfonyl)-3-(propan-2-yl)-1H-pyrazolo[3,4-b]pyridine-6-carboxamide]
- % Activation (ΔF508-CFTR [1]): 646.44%
- EC50 (ΔF508-CFTR [1]): 0.253 µM
- % Activation (ΔF508-CFTR [2]): 495.8%
- EC50 (ΔF508-CFTR [2]): 0.385 µM

Compound: COCCN(C)c1ccc(-c2cc(C(=O)NS(C)(=O)=O)nc3c2c(C(C)C)nn3-c2cccc(N(C)C)c2)cc1 [Compound 82, 1-[3-(dimethylamino)phenyl]-N-(methanesulfonyl)-4-{4-[(2-methoxyethyl)(methyl)amino]phenyl}-3-(propan-2-yl)-1H-pyrazolo[3,4-b]pyridine-6-carboxamide]
- % Activation (ΔF508-CFTR [1]): 535.93%
- EC50 (ΔF508-CFTR [1]): 0.383 µM
- % Activation (ΔF508-CFTR [2]): 366.27%
- EC50 (ΔF508-CFTR [2]): 0.472 µM

Compound: CC(C)c1nn(-c2cccc(N(C)C)c2)c2nc(C(=O)NS(C)(=O)=O)cc(-c3ccc(N4CCC(C#N)CC4)nc3)c12 [Compound 83, 4-[6-(4-cyanopiperidin-1-yl)pyridin-3-yl]-1-[3-(dimethylamino)phenyl]-N-(methanesulfonyl)-3-(propan-2-yl)-1H-pyrazolo[3,4-b]pyridine-6-carboxamide]
- % Activation (ΔF508-CFTR [1]): 567.7%
- EC50 (ΔF508-CFTR [1]): 0.425 µM
- % Activation (ΔF508-CFTR [2]): 391.5%
- EC50 (ΔF508-CFTR [2]): 0.547 µM

Compound: COCCN(C)c1ccc(-c2cc(C(=O)NS(C)(=O)=O)nc3c2c(C(C)C)nn3-c2cccc(N(C)C)c2)cn1 [Compound 84, 1-[3-(dimethylamino)phenyl]-N-(methanesulfonyl)-4-{6-[(2-methoxyethyl)(methyl)amino]pyridin-3-yl}-3-(propan-2-yl)-1H-pyrazolo[3,4-b]pyridine-6-carboxamide]
- % Activation (ΔF508-CFTR [1]): 468.2%
- EC50 (ΔF508-CFTR [1]): 0.408 µM
- % Activation (ΔF508-CFTR [2]): 311.7%
- EC50 (ΔF508-CFTR [2]): 0.66 µM

Compound: COCCN(C)c1ccc(-c2cc(C(=O)NS(C)(=O)=O)nc3c2c(C(C)C)nn3-c2cccc(N3CCOCC3)c2)cc1 [Compound 88, N-(methanesulfonyl)-4-{4-[(2-methoxyethyl)(methyl)amino]phenyl}-1-[3-(morpholin-4-yl)phenyl]-3-(propan-2-yl)-1H-pyrazolo[3,4-b]pyridine-6-carboxamide]
- % Activation (ΔF508-CFTR [1]): 546.2%
- EC50 (ΔF508-CFTR [1]): 0.413 µM
- % Activation (ΔF508-CFTR [2]): 389.73%
- EC50 (ΔF508-CFTR [2]): 0.474 µM

Compound: CC(C)c1nn(-c2cccc(N(C)C)c2)c2nc(C(=O)NS(C)(=O)=O)cc(-c3ccc(N(C)C4CCOCC4)nc3)c12 [Compound 89, 1-[3-(dimethylamino)phenyl]-N-(methanesulfonyl)-4-{6-[methyl(oxan-4-yl)amino]pyridin-3-yl}-3-(propan-2-yl)-1H-pyrazolo[3,4-b]pyridine-6-carboxamide]
- % Activation (ΔF508-CFTR [1]): 609.48%
- EC50 (ΔF508-CFTR [1]): 0.396 µM
- % Activation (ΔF508-CFTR [2]): 422.78%
- EC50 (ΔF508-CFTR [2]): 0.646 µM

Compound: CCS(=O)(=O)NC(=O)c1cc(-c2ccc(N(C)C3CCOCC3)nc2)c2c(C(C)C)nn(C3CCCCC3)c2n1 [Compound 90, 1-cyclohexyl-N-(ethanesulfonyl)-4-{6-[methyl(oxan-4-yl)amino]pyridin-3-yl}-3-(propan-2-yl)-1H-pyrazolo[3,4-b]pyridine-6-carboxamide]
- % Activation (ΔF508-CFTR [1]): 384.95%
- EC50 (ΔF508-CFTR [1]): 0.389 µM
- % Activation (ΔF508-CFTR [2]): 163.75%
- EC50 (ΔF508-CFTR [2]): 0.486 µM

Compound: CCS(=O)(=O)NC(=O)c1cc(-c2ccc(N(C)C)nc2)c2c(C3CC3)nn(C3CCCCC3)c2n1 [Compound 92, 1-cyclohexyl-3-cyclopropyl-4-[6-(dimethylamino)pyridin-3-yl]-N-(ethanesulfonyl)-1H-pyrazolo[3,4-b]pyridine-6-carboxamide]
- % Activation (ΔF508-CFTR [1]): 367.67%
- EC50 (ΔF508-CFTR [1]): 0.278 µM
- % Activation (ΔF508-CFTR [2]): 175.77%
- EC50 (ΔF508-CFTR [2]): 0.553 µM
